{"source": "patent US20050058745A1", "about": "“Use of Labiatae herb preparations for extending the flavor shelf life of malt beverages” (priority 2003, published 2005)", "key": {"[1]": {"details": "Walter et al. 1997; cited from earlier work"}, "[2]": {"details": "Dadic 1984; cited from earlier work"}, "[3]": {"assay": "DPPH number of light beer with carnosol", "type": "physicochemical", "details": "for DPPH No.: 2 to 4° C. for 1 day", "protocol": "To perform the test, about 0.04 g of DPPH was weighed to the nearest 0.1 mg in a 100 mL volumetric, recording the exact weight of DPPH. The DPPH was dissolved in methanol and methanol was added to bring the volume to the 100 mL mark. The solution was sonicated to facilitate dissolution. The beers to be measured were opened and 12 mL of each was poured into separate 15 mL centrifuge tubes, making sure that the volumes in all tubes were equal. The analyses were done in triplicate for each beer. An extra beer sample served as a spectrophotometer blank. The beer was degassed by centrifuging it for 15 min at 6,000 rpm. Into each of two 25 mL flasks was pipeted 5 mL of the pH 4.5 water-ethanol buffer. The spectrophotometer wavelength was set to 531 nm and a buffered water blank was zeroed. 1.0 mL of DPPH solution was added to the water buffer, which was swirled at the same time a timer was started. Just before 10 minutes had elapsed, the sample was transferred to a cuvette and the absorbance (ABL) was measured. The analysis was duplicated with another buffer. For accuracy it is necessary that great care be taken to add exactly 1 mL reagent. It is also important to swirl (mix) the samples consistently as the assay is sensitive to oxygen and to the amount of reagent used. Degassed beer was used to obtain a baseline at 531 nm. After centrifugation 5 mL of the beer was transferred into the appropriate labeled 25 mL flask. 1.0 mL of DPPH solution was added, the solution was swirled and the timer was started. The Absorbance (A531) of the beer sample was recorded. This process was repeated for all samples. To eliminate any possible prejudice in order of analysis, samples were analyzed randomly. The following formula was used to calculate the amount of DPPH which reacts with 5 mL of beer: μmol DPPH=((1−A531/ABL)×(g DPPH/394))×10^6\nA 2% solution of carnosol, isolated from sage extract, was prepared by weighing 200 mg pure carnosol and bringing to 10 mL with pure ethanol. […]"}, "[4]": {"assay": "Trained panel flavor evaluation, light beer, forced aging", "details": "5 ppm, 6 days 32° C.; for preservation of fresh flavor (words): light beer", "protocol": "Separate solution of pure rosmarinic acid, pure carnosol and pure carnosic acid were prepared in ethanol as previously.\nThe light beer used in this study was approximately one month old and was purchased at a local market. Bottle additions were done as in Example 1.\nThe bottles were placed in a heated room at 32±1° C. in the dark. After the allotted aging time, the bottles of beer were transferred to a dark refrigerator and stored at approximately 2° to 4° C. until they were analyzed. Additional bottles from the same code were kept unopened in 2° to 4° C. storage. These unopened samples from the same beer code were labeled “Fresh Control” used to provide fresh samples for the trained panel.\nAt the appropriate times, a trained 7-member panel evaluated the beers. […] Five beers were evaluated at the session—Fresh Control, Aged No Addition, and Aged containing each one of the Labiatae treatments. The overall preference rank, the character and intensity of the aroma, the levels of paper/cardboard aroma and flavor, sour or off flavors, hang and astringency and bitterness quality and intensity were evaluated."}, "[5]": {"assay": "DCIP redox potential of light beer with carnosol", "type": "physicochemical", "details": "for DCIP Redox Potential: 2 to 4° C. for 1 day", "protocol": "A 2% solution of carnosol, isolated from sage extract, was prepared by weighing 200 mg pure carnosol and bringing to 10 mL with pure ethanol. Bottles were dosed at 10 and 20 ppm carnosol with our standard bottle addition technique of opening, fobbing to exclude air, and crowning.\nBottles were stored at 2 to 4° C. for 1 day before analysis. Standard DCIP and DPPH measurements were taken."}}}
{"compound": "catechin", "values": [{"measurement": "effectiveness in standardized antioxidant assays", "setting": "[1]", "value": "ineffective"}]}
{"compound": "COc1ccc(O)c(C(C)(C)C)c1", "note": "[BHA]", "values": [{"measurement": "effectiveness as antioxidant for beer", "setting": "[2]", "value": "ineffective"}]}
{"compound": "O=c1c(O)c(-c2ccc(O)c(O)c2)oc2cc(O)cc(O)c12", "note": "[quercitin]", "values": [{"measurement": "effectiveness in standardized antioxidant assays", "setting": "[1]", "value": "ineffective"}]}
{"compound": "CC(C)c1cc2c(c(O)c1O)[C@@]13CCCC(C)(C)[C@@H]1C[C@@H]2OC3=O", "note": "[CN, carnosol]", "values": [{"measurement": "effect on beer's ability to reduce DPPH", "setting": "[3]", "value": "does not enhance a beer's ability to reduce DPPH"}, {"measurement": "DPPH No.", "setting": "[3]; 10 ppm Carnosol", "value": 33.1, "unit": "μmol DPPH"}, {"measurement": "DPPH No.", "setting": "[3]; 20 ppm Carnosol", "value": 37.0, "unit": "μmol DPPH"}, {"measurement": "panelists' preference for treated sample over Aged No Addition sample", "setting": "[4]", "value": "7 of 7 panelists preferred"}, {"measurement": "preservation of fresh flavor (words)", "setting": "[4]", "value": "very significantly retards the rate of staling"}, {"measurement": "preservation of fresh flavor (words)", "setting": "[4]; listed as Carnosol", "value": "significant, positive impact on preserving fresh flavor"}, {"measurement": "effect on redox potential by DCIP method", "setting": "[5]", "value": "does not enhance the redox potential of beer"}, {"measurement": "DCIP Redox Potential", "setting": "[5]; 10 ppm Carnosol", "value": 19.6}, {"measurement": "DCIP Redox Potential", "setting": "[5]; 20 ppm Carnosol", "value": 19.6}]}
{"compound": "Cc1cc(C(C)(C)C)c(O)c(C(C)(C)C)c1", "note": "[BHT]", "values": [{"measurement": "effectiveness as antioxidant for beer", "setting": "[2]", "value": "ineffective"}]}
